Experimental findings from patent US7981903B2, “2-[2-{phenylamino}-1H-pyrrolo[2,3-D]pyrimidin-4-yl)amino] benzamide derivatives as IGF-1R inhibitors for the treatment of cancer” (GlaxoSmithKline LLC, priority 2007, dated 2011) are described below.

One assay has as its target ALK (Homo sapiens, UniProt Q9UM73). Briefly: ALK enzyme assay (HTRF). The assay is classed as biochemical. The conditions noted are these: 0.25 nM ALK, 15.0 μM ATP, values given as pIC50 category. In a few lines: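 Isolated ALK phosphorylates a biotinylated tyrosine peptide, 120 min at 20° C; anti-phosphotyrosine Eu-cryptate/streptavidin-XL665 HTRF read after 60 min with EDTA-containing detection mix.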

Assay [1] has as its target T1, NIH-3T3 cells overexpressing human IGF-1R (Homo sapiens, UniProt P08069).
T1 construct: expressed in transfected cells; host or cells: NIH-3T3 (mouse fibroblasts)
As to the kind of experiment: IGF-1R cellular autophosphorylation (DELFIA). The assay is classed as cell-based. In a few lines: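 Receptor autophosphorylation measured by DELFIA, capturing IGF-1R or IRβ and detecting with europium anti-pTyr, reported as percent of IGF-1- or insulin-stimulated signal. Compounds (30 uM to 1.5 nM) added 2 h before ligand, then 15 min stimulation (IGF-1 30 ng/ml or insulin 3 ug/ml).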

A value given as a limit tells only on which side of the number the result lay.

Chain of ALK (Q9UM73 19-1620): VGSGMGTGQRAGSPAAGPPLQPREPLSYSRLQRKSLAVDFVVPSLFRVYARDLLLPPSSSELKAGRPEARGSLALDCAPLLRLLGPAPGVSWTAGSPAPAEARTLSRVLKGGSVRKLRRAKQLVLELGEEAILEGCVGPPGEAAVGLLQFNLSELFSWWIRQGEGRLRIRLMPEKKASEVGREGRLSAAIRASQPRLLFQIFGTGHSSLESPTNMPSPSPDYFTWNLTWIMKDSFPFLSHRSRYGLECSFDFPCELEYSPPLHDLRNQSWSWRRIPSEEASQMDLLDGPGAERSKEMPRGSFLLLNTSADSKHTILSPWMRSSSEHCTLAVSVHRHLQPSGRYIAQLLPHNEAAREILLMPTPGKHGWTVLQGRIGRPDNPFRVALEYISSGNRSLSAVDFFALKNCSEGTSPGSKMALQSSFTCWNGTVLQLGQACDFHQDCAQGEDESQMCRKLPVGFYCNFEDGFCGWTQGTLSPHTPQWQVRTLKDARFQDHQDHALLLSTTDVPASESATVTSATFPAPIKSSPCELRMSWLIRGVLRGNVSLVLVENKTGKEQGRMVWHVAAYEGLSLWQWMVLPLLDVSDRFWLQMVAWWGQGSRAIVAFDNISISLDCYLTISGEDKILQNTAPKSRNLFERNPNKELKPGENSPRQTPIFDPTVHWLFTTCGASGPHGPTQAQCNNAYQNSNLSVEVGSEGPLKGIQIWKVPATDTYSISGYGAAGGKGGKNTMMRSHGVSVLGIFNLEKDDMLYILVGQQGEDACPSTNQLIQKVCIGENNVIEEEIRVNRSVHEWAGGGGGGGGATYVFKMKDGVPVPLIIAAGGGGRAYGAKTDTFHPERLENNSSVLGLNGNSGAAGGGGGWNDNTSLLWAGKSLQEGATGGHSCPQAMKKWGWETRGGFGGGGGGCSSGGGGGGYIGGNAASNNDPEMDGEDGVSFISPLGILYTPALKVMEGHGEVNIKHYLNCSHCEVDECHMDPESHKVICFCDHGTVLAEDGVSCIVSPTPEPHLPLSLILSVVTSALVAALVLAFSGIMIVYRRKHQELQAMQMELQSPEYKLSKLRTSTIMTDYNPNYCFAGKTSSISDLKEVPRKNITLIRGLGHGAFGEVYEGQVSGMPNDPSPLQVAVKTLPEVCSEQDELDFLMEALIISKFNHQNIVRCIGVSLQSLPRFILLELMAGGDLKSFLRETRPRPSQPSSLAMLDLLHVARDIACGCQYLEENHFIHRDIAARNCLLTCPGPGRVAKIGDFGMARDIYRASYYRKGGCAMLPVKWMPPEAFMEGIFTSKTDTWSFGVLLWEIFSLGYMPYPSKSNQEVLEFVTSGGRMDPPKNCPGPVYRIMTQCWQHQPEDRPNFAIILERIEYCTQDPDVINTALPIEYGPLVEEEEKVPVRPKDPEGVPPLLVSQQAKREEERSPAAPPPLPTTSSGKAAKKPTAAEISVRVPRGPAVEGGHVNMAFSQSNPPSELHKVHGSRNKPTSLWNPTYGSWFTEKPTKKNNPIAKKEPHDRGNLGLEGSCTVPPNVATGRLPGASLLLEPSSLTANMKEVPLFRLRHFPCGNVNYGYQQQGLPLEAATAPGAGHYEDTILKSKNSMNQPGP
T1 sequence (P08069 31-1367): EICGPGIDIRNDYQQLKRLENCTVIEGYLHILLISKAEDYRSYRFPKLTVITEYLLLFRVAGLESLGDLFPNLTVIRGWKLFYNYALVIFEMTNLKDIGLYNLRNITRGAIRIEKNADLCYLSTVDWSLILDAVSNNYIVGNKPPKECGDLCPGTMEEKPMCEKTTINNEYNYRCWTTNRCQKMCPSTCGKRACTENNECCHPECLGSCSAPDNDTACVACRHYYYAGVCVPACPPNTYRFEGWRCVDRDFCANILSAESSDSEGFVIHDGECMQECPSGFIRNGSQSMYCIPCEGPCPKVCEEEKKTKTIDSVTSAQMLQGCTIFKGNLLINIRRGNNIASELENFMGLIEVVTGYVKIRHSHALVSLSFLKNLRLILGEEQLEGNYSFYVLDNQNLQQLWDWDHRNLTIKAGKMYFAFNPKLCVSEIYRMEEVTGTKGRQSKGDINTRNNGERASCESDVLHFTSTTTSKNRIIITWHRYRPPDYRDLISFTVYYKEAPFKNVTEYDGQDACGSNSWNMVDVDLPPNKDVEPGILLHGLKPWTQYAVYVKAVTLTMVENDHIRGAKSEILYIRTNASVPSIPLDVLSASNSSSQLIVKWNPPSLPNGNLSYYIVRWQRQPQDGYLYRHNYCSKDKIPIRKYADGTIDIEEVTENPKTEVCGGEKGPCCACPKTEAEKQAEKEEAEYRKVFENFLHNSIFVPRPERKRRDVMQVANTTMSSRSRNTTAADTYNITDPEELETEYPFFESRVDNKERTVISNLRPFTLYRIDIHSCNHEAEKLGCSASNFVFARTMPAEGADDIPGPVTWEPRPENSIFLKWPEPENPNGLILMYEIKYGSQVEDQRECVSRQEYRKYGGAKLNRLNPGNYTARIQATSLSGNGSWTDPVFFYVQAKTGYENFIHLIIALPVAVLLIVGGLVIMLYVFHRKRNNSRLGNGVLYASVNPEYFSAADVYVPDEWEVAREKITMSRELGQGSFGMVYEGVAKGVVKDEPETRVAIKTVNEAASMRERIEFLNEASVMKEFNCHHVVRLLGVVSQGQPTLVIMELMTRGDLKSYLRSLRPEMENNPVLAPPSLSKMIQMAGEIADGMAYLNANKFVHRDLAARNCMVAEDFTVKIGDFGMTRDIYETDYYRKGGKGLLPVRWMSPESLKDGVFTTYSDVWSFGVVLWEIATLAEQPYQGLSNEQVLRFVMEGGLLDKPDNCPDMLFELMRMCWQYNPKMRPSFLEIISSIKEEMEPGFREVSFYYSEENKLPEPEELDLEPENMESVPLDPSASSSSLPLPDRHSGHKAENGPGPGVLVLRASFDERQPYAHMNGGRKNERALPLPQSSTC

For the compound `COc1cc(N2CCC(N3CC[C@@H](F)C3)CC2)ccc1Nc1nc(Nc2cc(F)ccc2C(N)=O)c2cc[nH]c2n1` [Example 76, 4-fluoro-2-[(2-{[4-{4-[(3R)-3-fluoro-1-pyrrolidinyl]-1-piperidinyl}-2-(methyloxy)phenyl]amino}-1H-pyrrolo[2,3-d]pyrimidin-4-yl)amino]benzamide], the IC50 against ALK was 1.26 to 3.98 nM; in assay [1] it was < 100 nM.
The like results for `COc1cc(N2CCOCC2)ccc1Nc1nc(Nc2cc(F)c(F)cc2C(N)=O)c2cc[nH]c2n1` [Example 104, 4,5-difluoro-2-[(2-{[2-(methyloxy)-4-(4-morpholinyl)phenyl]amino}-1H-pyrrolo[2,3-d]pyrimidin-4-yl)amino]benzamide] were, in that order, 1.26 to 3.98 nM and < 100 nM.
For `COc1cc(N2CCOC[C@@H]2C)ccc1Nc1nc(Nc2cccc(F)c2C(N)=O)c2cc[nH]c2n1` [Example 49, 2-fluoro-6-[(2-{[4-[(3S)-3-methyl-4-morpholinyl]-2-(methyloxy)phenyl]amino}-1H-pyrrolo[2,3-d]pyrimidin-4-yl)amino]benzamide], in that order: 1.26 to 3.98 nM and 100 to 500 nM.
Turning to `COc1cc(N2CCC(N3CCCCC3)CC2)ccc1Nc1nc(Nc2cc(F)c(F)cc2C(N)=O)c2cc[nH]c2n1` [Example 100, 2-[(2-{[4-(1,4′-bipiperidin-1′-yl)-2-(methyloxy)phenyl]amino}-1H-pyrrolo[2,3-d]pyrimidin-4-yl)amino]-4,5-difluorobenzamide], the values for the IC50 (at ALK; in assay [1]) were 0.251 to 1 nM and < 100 nM, respectively.
Turning to `COc1cc(N2CCC(N3CCOCC3)CC2)ccc1Nc1nc(Nc2cc(F)c(F)cc2C(N)=O)c2cc[nH]c2n1` [Example 101, 4,5-difluoro-2-{[2-({2-(methyloxy)-4-[4-(4-morpholinyl)-1-piperidinyl]phenyl}amino)-1H-pyrrolo[2,3-d]pyrimidin-4-yl]amino}benzamide], the results for the IC50 (against ALK; in assay [1]) were 0.251 to 1 nM and < 100 nM, respectively.
The like results for `COc1cc(N2CCC(N3CC[C@H](F)C3)CC2)ccc1Nc1nc(Nc2cc(F)ccc2C(N)=O)c2cc[nH]c2n1` [Example 75, 4-fluoro-2-[(2-{[4-{4-[(3S)-3-fluoro-1-pyrrolidinyl]-1-piperidinyl}-2-(methyloxy)phenyl]amino}-1H-pyrrolo[2,3-d]pyrimidin-4-yl)amino]benzamide] were, in that order, 1.26 to 3.98 nM and < 100 nM.
For `COc1cc(N2CCOC[C@@H]2C)ccc1Nc1nc(Nc2ccc(F)cc2C(N)=O)c2cc[nH]c2n1` [Example 61, 5-fluoro-2-[(2-{[4-[(3S)-3-methyl-4-morpholinyl]-2-(methyloxy)phenyl]amino}-1H-pyrrolo[2,3-d]pyrimidin-4-yl)amino]benzamide], in that order: 1.26 to 3.98 nM and < 100 nM.
Turning to `COc1cc(N2CCN(C(C)C)CC2)ccc1Nc1nc(Nc2ccc(Br)cc2C(N)=O)c2cc[nH]c2n1` [Example 68, 5-bromo-2-[(2-{[4-[4-(1-methylethyl)-1-piperazinyl]-2-(methyloxy)phenyl]amino}-1H-pyrrolo[2,3-d]pyrimidin-4-yl)amino]benzamide], the IC50 against ALK is 0.251 to 1 nM; in assay [1] it was 100 to 500 nM.
For `CN(C)CC(=O)Nc1ccc(Cl)c(Nc2nc(Nc3ccccc3C(N)=O)c3cc[nH]c3n2)c1` [Example 18, 2-{[2-({2-chloro-5-[(N,N-dimethylglycyl)amino]phenyl}amino)-1H-pyrrolo[2,3-d]pyrimidin-4-yl]amino}benzamide], in that order: 1.26 to 3.98 nM and < 100 nM.
For `COc1cc(N2CCC[C@H](O)C2)ccc1Nc1nc(Nc2cc(F)ccc2C(N)=O)c2cc[nH]c2n1` [Example 74, 4-fluoro-2-[(2-{[4-[(3S)-3-hydroxy-1-piperidinyl]-2-(methyloxy)phenyl]amino}-1H-pyrrolo[2,3-d]pyrimidin-4-yl)amino]benzamide], in that order: 1.26 to 3.98 nM and 100 to 500 nM.

Broadly, the IC50 is the concentration needed to halve the response being measured. A lower IC50 goes with higher potency.
